Experimental data taken from US6410515B1, “Peptide, a method for its preparation and a pharmaceutical composition containing the peptide” (Immunotech Developments Inc., priority 1995, dated 2002).
Marks after values point to notes of the source that are not given here.

How the values were obtained:
[1] = tested on: Intact bone marrow cells (hemopoietic stem cells); assay: Spleen colony formation after in vitro treatment of intact bone marrow cells; assay type: cell-based, mice; conditions: for Colony count: Table 4, control 9,0 ± 0,6
Description: (§1) The effect of peptides of the present invention on a population of hemopoietic progenitors was studied by testing for colony formation by hemopoietic stem cells in spleens of irradiated mice.
Intact bone marrow cells were incubated at 37° C. for 1 hour with different concentrations of the peptide ranging from […]/ml. The suspension was injected to lethally irradiated recipient mice. After 8 days the animals were killed and spleen colonies were counted.
The treatment was carried out as described above in Example 4(a).

[2] = tested on: CFU-S population of bone marrow; assay: Spleen colony and CFU-S count after peptide injection to marrow donor mice; assay type: in vivo; conditions: for Colony count: control 10,7 ± 0,5; for CFU-S count: control 2436
Description: as §1
The peptide was injected intraperitoneally (IP) at different concentrations to intact mice. After two hours, one day, or two days the animals were killed. The bone marrow from the animals was taken to prepare a suspension of marrow cells, which was injected to lethally irradiated (8.5 Gy) mice. Along with the bone marrow, the recipients received injections of thymocytes. After 9 days, spleen colonies were counted. […]
The treatment was performed as described in Example 4(c).

[3] = tested on: CFU-S in S-phase; assay: Thymidine suicide test on boosted (4 Gy) bone marrow; assay type: in vivo, mice; conditions: for Average colony count: 4 Gy, per 10^5 injected bone marrow cells; for % CFU-S in S-phase: irradiation alone 55,0, intact control 10,5
Description: The mechanism of the inhibiting effect of the peptide on hemopoiesis was studied using the “thymidine suicide” test. The method provides an accurate measurement of the percentage of dividing cells (in the S-phase of the cell cycle). A bone marrow suspension is incubated with 3H-thymidine, which kills cells in the S-phase.
The first series of experiments investigated the effect of the peptide on CFU-S proliferation. Such an assay can not be done with intact marrow since the progenitors proliferate very poorly (0 to 15% in a cycle) in intact bone marrow. Consequently, as a source of CFU-S, “boosted” bone marrow was used containing at least 40% proliferating cells. “Boosted” bone marrow was obtained from mouse bone marrow on the 7th day following radiation with a dose of 4 Gy. Donor mice were irradiated with this dose and 5 or 6 days later they received iDD. On day 7 following the irradiation, the bone marrow was examined for the percentage of dividing cells, i.e. the iDD treatment lasted 1 or 2 days. According to the results obtained, when injected two days before the extraction of bone marrow, the peptide inhibited the proliferation so that the percentage of dividing cells was even lower than in intact subjects. When the peptide was injected one day before bone marrow was taken, no effect was observed (Table 7).
Table 7 illustrates the effect of the peptide on cell proliferation in irradiated (4 Gy) bone marrow.

[4] = tested on: hemopoietic progenitor cells (CFU-S); assay: CFU-S content in bone marrow of mice irradiated with 4 Gy; assay type: in vivo; conditions: day 8, control 401 ± 48
Description: The effect of H-A-D-Trp-Y, where A is D-Glu or D-iGlu and Y is OH or a substituted amide, on protection and reconstitution of the population of hemopoietic progenitor cells in cytopenias of different origin was studied.
Ionising radiation was used to deplete bone marrow. Donor mice were irradiated at a dose of 4 Gy. For each of the two peptides, 10 μg/kg was injected intraperitoneally 1 hour, 1 day or 2 days before the irradiation (groups of 12 mice each). Bone marrow was taken from femoral bones 8 days after the irradiation. Eight days generally marks the beginning of an exponential reconstitution of both the total number of cells and the population of hemopoietic progenitors in the bone marrow, which were depleted as a result of irradiation.
On the 8th day a sharp statistically significant increase was recorded in the hemopoietic progenitor cells count in the bone marrow of the mice irradiated in the dose of 4 Gy who had received the peptide 2 days before the irradiation.

[5] = tested on: allogenic bone marrow (C57B1 donor, F1 (CBA×C57B1) recipient); assay: Taking of allogenic bone marrow transplant and survival; assay type: in vivo, mice
Description: The preparations were administered daily for the first 5 days after transplantation of bone marrow transplants of donor mice C57B1 to lethally irradiated recipient mice F1 (CBA×C57B1), starting from the 1st hour after the transplantation.

[6] = tested on: lethally irradiated recipient mice; assay: State of hemopoiesis after transplantation of allogenic bone marrow; assay type: in vivo; conditions: for Caryocytes in blood: control 1,7 + 0,3; for Lymphocytes, %: control 3
Description: In a series of experiments, bone marrow cells (6 million) of one of the parents were transplanted to lethally irradiated recipient mice which were hybrids of the first generation. […] Generally, weight loss is observed and there is a small percent of deaths during the 42-day study.
A day after the bone marrow transplantation, test recipients began to receive therapy. Three schemes of therapy were used: (1) iDD, 10 μg/kg, ip, for 5 days running, with 2-day intervals, for 6 weeks (K+iDD); (2) before transplantation, bone marrow transplants were treated with iDD in vitro for 1 hour at 37° C., 0.2 jig per 2 x 10^6 cells, without […] treatment with the preparation (iDD); and (3) bone marrow was pretreated in vitro as described in scheme 2, followed by iDD therapy as in scheme 1 (iDD+iDD). Control subjects were mice that were transplanted with the bone marrow without any further therapy. These animals received ip injections of the solvent according to the same schedule.

[7] = tested on: patients with cytopenias of immune origin; assay: Clinical study: tolerability; assay type: in vivo
Description: The peptide iDD was given to patients with cytopenias of immune origin and its effect on hemopoietic status was assessed using a number of immunological tests characterising both humoral and cellular immunity.
The iDD was administered 0.1 mg in a 1 ml dose intranasally (once or twice in divided doses) for 5 days. The regime was repeated after a two week interval. For patients receiving steroids and cytostatics, iDD was administered during the therapy or before the cytostatic treatment.

[8] = Peptide IP to donor mice 2 hours before
[9] = Peptide IP to donor mice 1 day before
[10] = Peptide IP to donor mice 2 days before
[11] = iDD + iDD: in vitro pretreatment and iDD therapy
[12] = iDD: transplant treated in vitro only

In the case of H-D-iGlu-D-Trp-OH [iDD], the “Decrease of number of spleen colonies” value ([1]; Table 4, in the presence of the peptide) is reported as “more than 50%”, the Colony count ([1]; peptide dose 0,1 μg/ml, no thymocytes) is reported as 4,4 ± 0,5 and the Colony count ([1]; peptide dose 0,02 μg/ml, no thymocytes) is reported as 3,6 ± 0,5. The Colony count ([1]; peptide dose 1,0 μg/ml, no thymocytes) was 4,3 ± 0,3, the Colony count ([1]; peptide dose 10,0 μg/ml, no thymocytes) was 4,3 ± 0,1 and the Colony count ([1]; peptide dose 10,0 μg/ml, with thymocytes 2 × 10^7 cells) was 8,7 ± 0,4. The Colony count ([1]; peptide dose 20,0 μg/ml, no thymocytes) was 3,9 ± 0,4, the Colony count [2, 8] was 6,6 ± 0,5 and the CFU-S count [2, 8] was 917. The Colony count [2, 9] was 4,7 ± 0,6, the CFU-S count [2, 9] was 653 and the Colony count ([2]; Peptide IP to donor mice 2 days before + thymocytes) was 9,4 ± 0,9. The Colony count [2, 10] was 6,0 ± 0,9, the CFU-S count [2, 10] was 1098 and the Average colony count ([3]; iDD 1 day before marrow extraction, + 3H) was 5,8 ± 0,5. The Average colony count ([3]; iDD 1 day before marrow extraction, without 3H) was 8,3 ± 0,4, the “% CFU-S in S-phase” value ([3]; iDD 1 day) was 50,6% and the Average colony count ([3]; iDD 2 days before marrow extraction, + 3H) was 2,8 ± 0,2. The Average colony count ([3]; iDD 2 days before marrow extraction, without 3H) was 3,5 ± 0,2, the “% CFU-S in S-phase” value ([3]; iDD 2 days) was 5,8% and the “CFU-S count per femur” value ([4]; 10 μg/kg IP 1 hour before 4 Gy) was 394 ± 57. The “CFU-S count per femur” value ([4]; 10 μg/kg IP 1 day before 4 Gy) was 324 ± 63, the “CFU-S count per femur” value ([4]; 10 μg/kg IP 2 days before 4 Gy) was 677 ± 49 and the “CFU-S taking root, %” value ([5]; C57B1 marrow to F1, Cyclosporin A 25μg/kg sc, iDD 10μg/kg ip, untreated 17,3) was 43%. For the same substance, the Average colony count ([5]; C57B1 marrow to F1, daily 5 days, Cyclosporin A 25μg/kg sc, iDD 10μg/kg ip, per 10^5 cells, untreated 1,7 ± 0,3) was 4,2 ± 0,3, the “MCL (Medium continuation of life)” value ([5]; after 42 days, control 14,3) was 6,0 and the “Survived mice, %” value ([5]; after 42 days, control 50) was 93%. For the same substance, the Caryocytes in blood ([6]; K+ iDD: iDD 10 μg/kg ip, 6 weeks, intact 5,4 + 1,0) was 3,8 + 0,3 thousand/μl, the “Lymphocytes, %” value ([6]; K+ iDD: iDD 10 μg/kg ip, 6 weeks, intact 43) was 19% and the Caryocytes in blood [6, 11] was 5,2 + 0,6* thousand/μl. The “Lymphocytes, %” value [6, 11] was 40* %, the Caryocytes in blood [6, 12] was 4,2 + 0,3 thousand/μl and the “Lymphocytes, %” value [6, 12] was 21,5%. For the same substance, the “Increase of lymphocyte count versus control” value ([6]; schemes K+iDD and iDD) was 6-7 times, the “Dynamics of biochemical indices” value ([7]; before and after 1-3 treatment courses) was “no changes” and the “Somatic status (physical examinations)” value ([7]; before and after the treatment) was “no changes”. The “Changes in AP dynamics and ECG” value ([7]; iDD courses) was “not observed” and the “Toxic and adverse reactions” value ([7]; prolonged administration (5-6 courses), 0.1 mg intranasally for 5 days) was “no toxic reactions”.
